The first experiment addresses hKIF18A (1-374) (Homo sapiens (Human), UniProt Q8NI77). The experiment can be described thus: Inhibition of KIF18A microtubule-dependent ATPase activity (ADP-Glo).
Conditions: not given
Background: ADP-Glo first removes unused ATP, then detects ADP through luciferase.
Sequence of hKIF18A (1-374) (Q8NI77 whole entry, looked up): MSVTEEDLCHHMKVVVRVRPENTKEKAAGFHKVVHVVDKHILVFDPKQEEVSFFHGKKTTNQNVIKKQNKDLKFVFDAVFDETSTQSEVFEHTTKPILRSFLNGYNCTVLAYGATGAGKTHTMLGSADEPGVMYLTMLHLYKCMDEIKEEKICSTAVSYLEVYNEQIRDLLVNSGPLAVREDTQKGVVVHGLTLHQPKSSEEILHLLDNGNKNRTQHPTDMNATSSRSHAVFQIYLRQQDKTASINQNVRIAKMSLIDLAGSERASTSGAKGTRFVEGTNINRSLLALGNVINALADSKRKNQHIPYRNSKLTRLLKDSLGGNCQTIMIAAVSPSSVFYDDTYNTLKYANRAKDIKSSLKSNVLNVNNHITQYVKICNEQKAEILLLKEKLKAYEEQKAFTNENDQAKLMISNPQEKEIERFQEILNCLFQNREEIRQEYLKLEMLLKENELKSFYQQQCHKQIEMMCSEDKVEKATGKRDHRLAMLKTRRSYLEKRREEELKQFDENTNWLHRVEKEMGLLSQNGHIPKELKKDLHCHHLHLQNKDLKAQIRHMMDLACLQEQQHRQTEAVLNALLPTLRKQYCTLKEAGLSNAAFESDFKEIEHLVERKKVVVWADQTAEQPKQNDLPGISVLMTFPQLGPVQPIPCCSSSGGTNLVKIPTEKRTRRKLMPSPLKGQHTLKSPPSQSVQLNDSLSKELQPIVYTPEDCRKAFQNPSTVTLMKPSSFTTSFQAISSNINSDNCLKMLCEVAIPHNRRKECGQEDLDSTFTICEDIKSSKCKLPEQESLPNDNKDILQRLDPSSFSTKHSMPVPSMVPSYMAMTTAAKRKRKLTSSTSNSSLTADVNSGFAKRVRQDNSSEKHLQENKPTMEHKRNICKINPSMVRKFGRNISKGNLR
Sequence of hKIF18A (1-374) (Q2XVP4 whole entry partner, looked up): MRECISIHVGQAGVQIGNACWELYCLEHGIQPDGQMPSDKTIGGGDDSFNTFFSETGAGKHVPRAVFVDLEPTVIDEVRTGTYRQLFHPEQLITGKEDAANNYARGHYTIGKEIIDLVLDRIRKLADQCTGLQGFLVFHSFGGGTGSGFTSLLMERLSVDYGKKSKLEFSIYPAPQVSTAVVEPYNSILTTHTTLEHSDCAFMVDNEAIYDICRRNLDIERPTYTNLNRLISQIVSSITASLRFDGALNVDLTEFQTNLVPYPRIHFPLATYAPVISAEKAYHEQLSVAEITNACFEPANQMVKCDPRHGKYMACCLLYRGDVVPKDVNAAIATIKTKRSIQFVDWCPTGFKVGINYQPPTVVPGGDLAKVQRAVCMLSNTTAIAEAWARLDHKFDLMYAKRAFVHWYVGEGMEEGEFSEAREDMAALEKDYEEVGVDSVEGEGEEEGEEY
Sequence of hKIF18A (1-374) (P02554 whole entry partner, looked up): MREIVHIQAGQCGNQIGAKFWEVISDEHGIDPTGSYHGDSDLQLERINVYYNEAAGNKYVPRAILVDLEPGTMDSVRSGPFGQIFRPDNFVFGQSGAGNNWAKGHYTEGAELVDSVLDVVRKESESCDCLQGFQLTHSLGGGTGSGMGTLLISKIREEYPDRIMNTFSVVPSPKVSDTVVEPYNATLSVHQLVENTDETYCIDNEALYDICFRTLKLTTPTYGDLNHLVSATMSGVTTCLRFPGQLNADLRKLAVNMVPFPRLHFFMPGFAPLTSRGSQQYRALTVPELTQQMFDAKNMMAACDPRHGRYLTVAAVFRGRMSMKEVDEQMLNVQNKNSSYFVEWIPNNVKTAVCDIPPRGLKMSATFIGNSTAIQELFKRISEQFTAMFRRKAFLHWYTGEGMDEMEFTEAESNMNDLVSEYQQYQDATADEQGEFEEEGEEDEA
Take `C[C@@H]1CCN(S(=O)(=O)c2cccc(C(=O)N3CC4(CCC5(CC5)CC4)c4cc(NS(C)(=O)=O)ccc43)c2)C1` [(R)-Compound 249, (R)-N-(1″-(3-((3-methylpyrrolidin-1-yl)sulfonyl)benzoyl)dispiro[cyclopropane-1,1′-cyclohexane-4′,3″-indolin]-5″- yl)methanesulfonamide]: the IC50 (as a rule, the concentration that inhibits the measured activity by half) was 11 nM.

Regarding `C[C@H]1CCN(S(=O)(=O)c2cccc(C(=O)N3CC4(CCC5(CC5)CC4)c4cc(NS(C)(=O)=O)ccc43)c2)C1` [(S)-Compound 249, (S)-N-(1″-(3-((3-methylpyrrolidin-1-yl)sulfonyl)benzoyl)dispiro[cyclopropane-1,1′-cyclohexane-4′,3″-indolin]-5″- yl)methanesulfonamide], the midpoint of inhibition, the IC50, lay at 16 nM.

Compound `CC1CCC2(CC1)CN(C(=O)c1cccc(S(=O)(=O)N3CCC(F)(F)CC3)c1)c1ccc(Br)cc12` (centres unmarked) [Compound 15, (5′-bromo-4-methylspiro[cyclohexane-1,3′-indolin]-1′-yl)(3-((4,4-difluoropiperidin-1-yl)sulfonyl)phenyl)methanone] gave an IC50 of 740 nM.

Staying with this experiment, now noted: KIF18A microtubule-dependent ATPase activity, biochemical assay.
For the compound `CS(=O)(=O)Nc1ccc2c(c1)C1(CCC3(CC3)CC1)CN2C(=O)c1cccc(S(=N)(=O)C2CCCC2)c1` (single isomer, unassigned) [Compound 287a], the IC50 stood at 34 nM.

For `CS(=O)(=O)Nc1ccc2c(c1)C1(CCC3(CC3)CC1)CN2C(=O)c1cccc([C@@H](O)C2CCC2)c1` (single isomer, unassigned) [Compound 313a], half-maximal inhibition (IC50) was put at 19 nM.

Compound `CS(=O)(=O)Nc1ccc2c(c1)C1(CCC3(CC3)CC1)CN2C(=O)c1cccc([C@H](O)C2CCC2)c1` (single isomer, unassigned) [Compound 313b] gave an IC50 of 15 nM.

As to `CS(=O)(=O)Nc1ccc2c(c1)C1(CCC3(CC3)CC1)CN2C(=O)c1ccnc([C@@H](O)C2CCCC2)c1` (single isomer, unassigned) [Compound 316a], half-maximal inhibition (IC50) was put at 21 nM.

On to `CS(=O)(=O)Nc1ccc2c(c1)C1(CCC3(CC3)CC1)CN2C(=O)c1ccnc([C@H](O)C2CCCC2)c1` (single isomer, unassigned) [Compound 316b], for which the IC50 is 16 nM.

As to `CC(C)(C)NS(=O)(=O)c1cccc(C(=O)N2CC3(CCC4(CC4)CC3)c3cc(C(O)C(F)(F)F)ccc32)c1` (single isomer, unassigned) [Compound 338a], 48 nM corresponded to half-maximal inhibition (IC50).

Turning to `CC(C)(C)NS(=O)(=O)c1cccc(C(=O)N2CC3(CCC4(CC4)CC3)c3cc(C(O)C(F)(F)F)ccc32)c1` (single isomer, unassigned) [Compound 338b], the IC50 was 83 nM.

Consider `C[C@@H](c1cccc(C(=O)N2CC3(CCC4(CC4)CC3)c3cc(NS(C)(=O)=O)ccc32)c1)N1CCC(F)(F)CC1` (single isomer, unassigned) [Compound 341a], for which 30 nM corresponded to half-maximal inhibition (IC50).

`C[C@H](c1cccc(C(=O)N2CC3(CCC4(CC4)CC3)c3cc(NS(C)(=O)=O)ccc32)c1)N1CCC(F)(F)CC1` (single isomer, unassigned) [Compound 341b] registered an IC50 of 24 nM. This IC50 and that of the compound before are within 1.5-fold of each other.

Consider `CCS(=O)(=O)Nc1ccc2c(c1)C1(CCC3(CC3)CC1)CN2C(=O)c1ccc(C(O)C2CCCC2)o1` (single isomer, unassigned) [Compound 367a], for which the IC50 is 3.9 nM.

As for `CCS(=O)(=O)Nc1ccc2c(c1)C1(CCC3(CC3)CC1)CN2C(=O)c1ccc(C(O)C2CCCC2)o1` (single isomer, unassigned) [Compound 367b], half-maximal inhibition (IC50) required 4.8 nM. The IC50 values of the last two compounds are within 1.5-fold of each other.

Consider `O=C(c1ccc(C(O)C2CCCC2)o1)N1CC2(CCC3(CC3)CC2)c2cc(NS(=O)(=O)CCO)ccc21` (single isomer, unassigned) [Compound 368a], for which the IC50 came out at 3 nM.

Consider `O=C(c1ccc(C(O)C2CCCC2)o1)N1CC2(CCC3(CC3)CC2)c2cc(NS(=O)(=O)CCO)ccc21` (single isomer, unassigned) [Compound 368b], for which the IC50 was 3.5 nM.

Regarding `CC(C)(C)[C@@H](O)c1ccc(C(=O)N2CC3(CCC4(CC4)CC3)c3cc(NS(=O)(=O)CCO)ccc32)o1` (single isomer, unassigned) [Compound 371a], the midpoint of inhibition, the IC50, lay at 30 nM.

Turning to `CC(C)(C)[C@H](O)c1ccc(C(=O)N2CC3(CCC4(CC4)CC3)c3cc(NS(=O)(=O)CCO)ccc32)o1` (single isomer, unassigned) [Compound 371b], the IC50 stood at 40 nM.

Regarding `CCS(=O)(=O)Nc1ccc2c(c1)C1(CCC3(CC3)CC1)CN2C(=O)c1ccc([C@H](O)C(C)(C)C)o1` (single isomer, unassigned) [Compound 372a], the IC50 turned out to be 37 nM.

With `CCS(=O)(=O)Nc1ccc2c(c1)C1(CCC3(CC3)CC1)CN2C(=O)c1ccc([C@@H](O)C(C)(C)C)o1` (single isomer, unassigned) [Compound 372b], the IC50 was 35 nM. The IC50 values of the last two compounds are within 1.5-fold of each other.

As for `CC(C)(C)[C@@H](O)c1ccc(C(=O)N2CC3(CCC4(CC4)CC3)c3cc(NS(C)(=O)=O)ccc32)o1` (single isomer, unassigned) [Compound 373a], half-maximal inhibition (IC50) required 200 nM.

The compound `CC(C)(C)[C@H](O)c1ccc(C(=O)N2CC3(CCC4(CC4)CC3)c3cc(NS(C)(=O)=O)ccc32)o1` (single isomer, unassigned) [Compound 373b] had a half-inhibitory concentration (IC50) of 170 nM. The IC50 values of the last two compounds are within 1.5-fold of each other.

On to `CS(=O)(=O)Nc1ccc2c(c1)C1(CCC3(CC3)CC1)CN2C(=O)c1cccc(S(=O)(=O)N2CC[C@H](F)C2)c1` [(S)-Compound 239, (S)-N-(1″-(3-((3-fluoropyrrolidin-1-yl)sulfonyl)benzoyl)dispiro[cyclopropane-1,1′-cyclohexane-4′,3″-indolin]-5″- yl)methanesulfonamide], for which the IC50 came to 15 nM.

Compound `O=C(c1cccc(S(=O)(=O)N2CCC(F)(F)CC2)c1)N1CC2(CCCC2)c2c(F)cccc21` [Compound 1, (3-((4,4-difluoropiperidin-1-yl)sulfonyl)phenyl)(4′-fluorospiro[cyclopentane-1,3′-indolin]-1′-yl)methanone] came in with an IC50 of 1600 nM.

For `O=C(c1cccc(S(=O)(=O)N2CCCCC2)c1)N1CC2(CCCC2)c2c(F)cccc21` [Compound 1′, (4′-fluorospiro[cyclopentane-1,3′-indolin]-1′-yl)(3-(piperidin-1-ylsulfonyl)phenyl)methanone], the IC50 was determined as 2600 nM. Compared with the last compound, the IC50 is about 1.6-fold higher.

In turn, `O=C(c1cccc(S(=O)(=O)N2CCC(F)(F)CC2)c1)N1CC2(CCCC2)c2ccccc21` [Compound 3, (3-((4,4-difluoropiperidin-1-yl)sulfonyl)phenyl)(spiro[cyclopentane-1,3′-indolin]-1′-yl)methanone] registered an IC50 of 1600 nM.

Compound `O=C(c1cccc(S(=O)(=O)N2CCCCC2)c1)N1CC2(CCC3(CC3)CC2)c2ccccc21` [Compound 6, dispiro[cyclopropane-1,1′-cyclohexane-4′,3″-indolin]-1″-yl(3-(piperidin-1-ylsulfonyl)phenyl)methanone] returned an IC50 of 580 nM.

Compound `O=C(c1cccc(S(=O)(=O)N2CCCC2)c1)N1CC2(CCC3(CC3)CC2)c2ccccc21` [Compound 8, dispiro[cyclopropane-1,1′-cyclohexane-4′,3″-indolin]-1″-yl(3-(pyrrolidin-1-ylsulfonyl)phenyl)methanone] gave an IC50 of 940 nM.

`CC(C)(C)NS(=O)(=O)c1cccc(C(=O)N2CC3(CCC4(CC4)CC3)c3cc(Br)ccc32)c1` [Compound 9, 3-(5″-bromodispiro[cyclopropane-1,1′-cyclohexane-4′,3″-indoline]-1″- carbonyl)-N-(tert-butyl)benzenesulfonamide] had an IC50 of 1000 nM.

`CC1CCC2(CC1)CN(C(=O)c1cccc(S(=O)(=O)N3CCC(F)(F)CC3)c1)c1ccc(Br)cc12` (centres unmarked) [Compound 15, (5′-bromo-4-methylspiro[cyclohexane-1,3′-indolin]-1′-yl)(3-((4,4-difluoropiperidin-1-yl)sulfonyl)phenyl)methanone] came in with an IC50 of 780 nM.

The compound `CC1CCC2(C1)CN(C(=O)c1cccc(S(=O)(=O)N3CCC(F)(F)CC3)c1)c1ccc(NS(C)(=O)=O)cc12` (centres unmarked) [Compound 23, N-(1′-(3-((4,4-difluoropiperidin-1-yl)sulfonyl)benzoyl)-3-methylspiro[cyclopentane-1,3′-indolin]-5′-yl)methanesulfonamide] yielded an IC50 of 23 nM.

In turn, `CS(=O)(=O)Nc1ccc2c(c1)C1(CCCCC1)CN2C(=O)c1cccc(S(=O)(=O)N2CC3CC3C2)c1` (centres unmarked) [Compound 25, N-(1′-(3-((3-azabicyclo[3.1.0]hexan-3-yl)sulfonyl)benzoyl)spiro[cyclohexane-1,3′-indolin]-5′-yl)methanesulfonamide] displayed a 50% inhibitory concentration (IC50) of 120 nM. Against the preceding compound, the IC50 is about 5.2-fold higher.

`CCC1=CCC2(CC1)CN(C(=O)c1cccc(S(=O)(=O)NC(C)(C)C)c1)c1ccc(NS(C)(=O)=O)cc12` (centres unmarked) [Compound 31, N-(tert-butyl)-3-(4-ethyl-5′-(methylsulfonamido)spiro[cyclohexane-1,3′-indolin]-3-en-1′-carbonyl)benzenesulfonamide] yielded an IC50 of 39 nM.

Turning to `CCN(c1ccc2c(c1)C1(CCC3(CC3)CC1)CN2C(=O)c1cccc(S(=O)(=O)N2CCC(F)(F)CC2)c1)S(C)(=O)=O` [Compound 32, N-(1″-(3-((4,4-difluoropiperidin-1-yl)sulfonyl)benzoyl)dispiro[cyclopropane-1,1′-cyclohexane-4′,3″-indolin]-5″- yl)-N-ethylmethanesulfonamide], the IC50 was 78 nM.

`CN(C)S(=O)(=O)c1cccc(C(=O)N2CC3(CCCCC3)c3cc(NS(C)(=O)=O)ccc32)c1` [Compound 42, N,N-dimethyl-3-(5′-(methylsulfonamido)spiro[cyclohexane-1,3′-indoline]-1′-carbonyl)benzenesulfonamide]: the IC50 was 1300 nM. This IC50 is about 17-fold higher than that of the compound before.

Turning to `CS(=O)(=O)Nc1ccc2c(c1)C1(CCCCC1)CN2C(=O)c1cccc(S(=O)(=O)N2CCC2)c1` [Compound 45, N-(1′-(3-(azetidin-1-ylsulfonyl)benzoyl)spiro[cyclohexane-1,3′-indolin]-5′-yl)methanesulfonamide], 270 nM corresponded to half-maximal inhibition (IC50).

Compound `CS(=O)(=O)Nc1ccc2c(c1)C1(CCCCC1)CN2C(=O)c1cccc(S(=O)(=O)NC2CC2)c1` [Compound 46, N-cyclopropyl-3-(5′-(methylsulfonamido)spiro[cyclohexane-1,3′-indoline]-1′-carbonyl)benzenesulfonamide] returned an IC50 of 120 nM. This IC50 is about 2.2-fold lower than that of the compound before.

The compound `CC(C)NS(=O)(=O)c1cccc(C(=O)N2CC3(CCCCC3)c3cc(NS(C)(=O)=O)ccc32)c1` [Compound 48, N-isopropyl-3-(5′-(methylsulfonamido)spiro[cyclohexane-1,3′-indoline]-1′-carbonyl)benzenesulfonamide] showed an IC50 of 100 nM.

(Values after patent publication US12084420B2, “Indoline compounds for inhibiting KIF18A” (Volastra Therapeutics, Inc., priority 2021, dated 2024).)
